Counter-ions that a name gives are not always drawn. Like-named read-outs stand apart in the source and are kept apart here.

The source of these data is patent publication US8871753B2, “Macrocyclic compounds and their use as kinase inhibitors” (Incyte Corporation, priority 2008, dated 2014).

Common to all, as to format: biochemical
Experiment [1] concerns the target T1, Recombinant Human Anaplastic Lymphoma Kinase (Homo sapiens, UniProt Q9UM73).
T1 construct: purchased Invitrogen, Carlsbad, Calif
The experiment is described as follows: ALK HTRF kinase assay. The gist of the method: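 Readout was HTRF between a Eu-W1024 anti-phosphotyrosine antibody and streptavidin-APC bound to biotinylated peptide phosphorylated by recombinant human ALK. IC50 values came from a four-parameter logistic fit.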

The target of a further experiment is TYK2 (Homo sapiens, UniProt P29597). The experiment is described as follows: TYK2 kinase inhibition (Table A1).
Experiment [2] has as its target T2, human JAK3 (a.a. 781-1124) (Homo sapiens, UniProt P52333).
T2 construct: JAK3 (a.a. 781-1124); His tag (N); made in house; host or cells: insect cells (baculovirus)
The experiment is described as follows: In vitro JAK kinase assay (HTRF, phosphorylation of a biotinylated peptide), JAK3. The gist of the method:
(§1)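 Phosphorylation of a biotinylated peptide by the JAK kinase domain, detected by HTRF with Eu-Py20 and SA-APC. ATP was 90 μM for JAK1, 30 μM for JAK2 and 3 μM for JAK3. Reactions ran 1 h at room temperature and were stopped with EDTA, followed by 40 min antibody binding.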

Experiment [3] addresses T3, human JAK2 (a.a. 828-1132) (Homo sapiens, UniProt O60674).
T3 construct: JAK2 (a.a. 828-1132); His tag (N); made in house; host or cells: insect cells (baculovirus)
The experiment is described as follows: In vitro JAK kinase assay (HTRF, phosphorylation of a biotinylated peptide), JAK2. The gist of the method: as §1

The target in experiment [4] is T4, human JAK1 (a.a. 837-1142) (Homo sapiens, UniProt P23458).
T4 construct: human JAK1 (a.a. 837-1142); His tag (N); made in house; host or cells: insect cells (baculovirus)
The experiment is described as follows: In vitro JAK kinase assay (HTRF, phosphorylation of a biotinylated peptide), JAK1. The following applies: read-out: JAK1 IC50. The gist of the method: as §1

Where [5] appears, read: compound at a concentration of 500 nM or 1 mM (not specified), cells shown as percentage.
Setting [6] is: compound at 500 nM or 1 mM, 90 μM ATP.
Setting [7] is: method AA1 (3 μM ATP) or AA2 (1000 μM ATP), not stated per value.
The mark [8] stands for this setting: method AA1 (30 μM ATP) or AA2 (1000 μM ATP), not stated per value.
Where [9] appears, read: method AA1 (90 μM ATP) or AA2 (1000 μM ATP), not stated per value.
[10] abbreviates: percentage inhibition of the example compound at a concentration of 500 nM or 1 mM (not specified which).

T1 sequence (Q9UM73 19-1620): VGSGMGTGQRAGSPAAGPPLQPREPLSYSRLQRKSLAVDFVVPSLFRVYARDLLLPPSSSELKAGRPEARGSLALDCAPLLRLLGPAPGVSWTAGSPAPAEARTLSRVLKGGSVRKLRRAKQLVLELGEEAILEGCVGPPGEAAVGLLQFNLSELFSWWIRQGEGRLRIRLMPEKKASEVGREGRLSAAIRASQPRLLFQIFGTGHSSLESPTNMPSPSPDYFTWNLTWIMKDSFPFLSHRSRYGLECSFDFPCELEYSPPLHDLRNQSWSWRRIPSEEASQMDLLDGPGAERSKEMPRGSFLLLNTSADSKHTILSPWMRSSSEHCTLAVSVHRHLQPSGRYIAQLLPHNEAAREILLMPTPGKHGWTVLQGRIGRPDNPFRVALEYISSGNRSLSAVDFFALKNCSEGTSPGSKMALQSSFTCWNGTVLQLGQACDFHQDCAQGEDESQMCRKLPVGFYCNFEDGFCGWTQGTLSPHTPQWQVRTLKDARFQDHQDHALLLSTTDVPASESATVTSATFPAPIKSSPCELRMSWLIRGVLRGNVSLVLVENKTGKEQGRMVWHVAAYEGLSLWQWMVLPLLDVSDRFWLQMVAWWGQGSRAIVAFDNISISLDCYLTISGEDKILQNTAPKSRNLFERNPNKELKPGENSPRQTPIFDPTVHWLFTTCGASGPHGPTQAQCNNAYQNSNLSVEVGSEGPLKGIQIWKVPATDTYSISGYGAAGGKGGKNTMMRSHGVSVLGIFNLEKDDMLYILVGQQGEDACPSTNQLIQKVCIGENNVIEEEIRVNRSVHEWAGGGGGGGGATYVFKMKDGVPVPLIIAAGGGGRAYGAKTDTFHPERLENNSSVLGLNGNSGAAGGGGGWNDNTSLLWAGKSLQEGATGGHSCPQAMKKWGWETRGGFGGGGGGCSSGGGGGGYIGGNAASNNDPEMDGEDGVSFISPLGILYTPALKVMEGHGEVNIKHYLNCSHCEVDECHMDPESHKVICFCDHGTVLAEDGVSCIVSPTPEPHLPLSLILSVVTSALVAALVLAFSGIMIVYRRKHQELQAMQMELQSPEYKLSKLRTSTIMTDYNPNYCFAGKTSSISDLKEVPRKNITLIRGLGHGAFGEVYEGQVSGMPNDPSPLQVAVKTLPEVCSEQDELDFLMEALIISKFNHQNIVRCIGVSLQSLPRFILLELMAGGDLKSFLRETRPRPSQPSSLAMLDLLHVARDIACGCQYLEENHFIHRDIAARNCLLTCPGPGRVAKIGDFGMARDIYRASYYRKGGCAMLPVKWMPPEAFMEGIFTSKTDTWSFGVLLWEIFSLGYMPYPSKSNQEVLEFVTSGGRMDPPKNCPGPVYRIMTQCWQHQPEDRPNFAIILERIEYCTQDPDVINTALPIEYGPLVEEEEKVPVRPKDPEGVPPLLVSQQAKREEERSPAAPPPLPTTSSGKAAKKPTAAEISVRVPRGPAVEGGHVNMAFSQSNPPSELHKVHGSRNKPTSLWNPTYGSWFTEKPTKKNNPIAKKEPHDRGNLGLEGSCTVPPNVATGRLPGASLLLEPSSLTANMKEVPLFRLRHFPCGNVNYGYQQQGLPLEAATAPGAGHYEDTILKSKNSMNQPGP
TYK2, sequence (P29597 whole entry): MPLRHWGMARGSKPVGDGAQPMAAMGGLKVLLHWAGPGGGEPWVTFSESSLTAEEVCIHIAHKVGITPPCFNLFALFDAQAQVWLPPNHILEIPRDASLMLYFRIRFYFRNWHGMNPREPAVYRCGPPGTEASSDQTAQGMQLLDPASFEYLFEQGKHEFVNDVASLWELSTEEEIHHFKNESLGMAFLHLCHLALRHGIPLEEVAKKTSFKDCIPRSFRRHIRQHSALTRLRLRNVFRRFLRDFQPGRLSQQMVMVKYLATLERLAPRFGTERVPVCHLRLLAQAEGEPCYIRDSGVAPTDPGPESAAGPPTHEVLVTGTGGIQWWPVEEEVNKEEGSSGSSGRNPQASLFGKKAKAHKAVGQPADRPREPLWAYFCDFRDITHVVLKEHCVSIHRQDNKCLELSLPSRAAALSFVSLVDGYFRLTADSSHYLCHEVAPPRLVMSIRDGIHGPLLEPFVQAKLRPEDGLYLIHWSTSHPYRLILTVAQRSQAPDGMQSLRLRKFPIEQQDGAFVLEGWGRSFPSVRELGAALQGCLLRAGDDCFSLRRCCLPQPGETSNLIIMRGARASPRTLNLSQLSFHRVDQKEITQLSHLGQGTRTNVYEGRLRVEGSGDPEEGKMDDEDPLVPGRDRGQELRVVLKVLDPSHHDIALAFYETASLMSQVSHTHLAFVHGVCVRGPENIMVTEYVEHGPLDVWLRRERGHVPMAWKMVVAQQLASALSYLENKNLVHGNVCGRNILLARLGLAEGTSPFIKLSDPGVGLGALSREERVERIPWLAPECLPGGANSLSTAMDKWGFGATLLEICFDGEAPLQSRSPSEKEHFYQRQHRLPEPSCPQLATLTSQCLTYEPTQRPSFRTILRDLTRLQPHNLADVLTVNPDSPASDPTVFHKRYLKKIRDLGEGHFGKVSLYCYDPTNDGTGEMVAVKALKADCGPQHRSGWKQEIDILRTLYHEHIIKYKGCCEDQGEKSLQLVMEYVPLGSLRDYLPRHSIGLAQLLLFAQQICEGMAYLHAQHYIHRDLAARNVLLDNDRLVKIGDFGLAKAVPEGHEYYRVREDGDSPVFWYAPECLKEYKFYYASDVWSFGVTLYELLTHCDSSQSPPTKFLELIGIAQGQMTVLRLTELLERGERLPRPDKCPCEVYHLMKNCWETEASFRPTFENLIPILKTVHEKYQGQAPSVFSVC
T4 sequence (P23458 849-1154): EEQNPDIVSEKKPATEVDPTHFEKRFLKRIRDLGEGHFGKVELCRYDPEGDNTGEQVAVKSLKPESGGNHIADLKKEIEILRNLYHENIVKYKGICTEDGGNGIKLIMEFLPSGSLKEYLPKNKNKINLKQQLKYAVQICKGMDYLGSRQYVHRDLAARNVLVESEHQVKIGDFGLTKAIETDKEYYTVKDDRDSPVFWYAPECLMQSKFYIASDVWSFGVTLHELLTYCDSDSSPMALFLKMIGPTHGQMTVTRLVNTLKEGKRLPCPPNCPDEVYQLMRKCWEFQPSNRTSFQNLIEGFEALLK
T3 sequence (O60674 828-1132): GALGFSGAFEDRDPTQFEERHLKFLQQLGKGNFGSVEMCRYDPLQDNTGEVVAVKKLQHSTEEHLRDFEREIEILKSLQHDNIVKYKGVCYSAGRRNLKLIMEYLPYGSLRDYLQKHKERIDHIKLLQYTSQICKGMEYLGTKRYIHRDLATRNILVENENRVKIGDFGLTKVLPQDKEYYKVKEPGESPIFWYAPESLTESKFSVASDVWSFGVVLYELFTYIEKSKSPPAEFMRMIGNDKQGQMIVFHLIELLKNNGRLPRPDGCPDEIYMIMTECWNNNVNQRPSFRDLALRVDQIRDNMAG
T2 sequence (P52333 781-1124): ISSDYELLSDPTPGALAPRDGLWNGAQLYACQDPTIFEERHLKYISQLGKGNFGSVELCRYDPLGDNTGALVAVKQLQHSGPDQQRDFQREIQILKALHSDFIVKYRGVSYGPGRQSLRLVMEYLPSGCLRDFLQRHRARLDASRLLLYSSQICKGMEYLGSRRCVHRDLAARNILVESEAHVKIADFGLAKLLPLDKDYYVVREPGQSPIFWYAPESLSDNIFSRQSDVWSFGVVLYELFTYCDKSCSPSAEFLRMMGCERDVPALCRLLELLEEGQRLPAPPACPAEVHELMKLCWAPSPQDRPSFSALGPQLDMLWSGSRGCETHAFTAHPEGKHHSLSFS

Take `Cc1cc(C(=O)N2CC[C@H](NC(=O)Nc3ccc4cc3CCc3cncc(c3)Nc3ncc(Cl)c(n3)N4)C2)no1` [Example B265, N-[6-Chloro-2,4,8,18,22-pentaazatetracyclo[14.3.1.1(3,7).1(9,13)]docosa-1(20),3(22),4,6,9(21),10,12,16,18-nonaen-12-yl]-N′-{(3S)-1-[(5-methylisoxazol-3-yl)carbonyl]pyrrolidin-3-yl}urea bis(trifluoroacetate)]: the “ALK % of inhibition at a concentration of 500 nM or 1 mM” value (“ALK % of inhibition” for short) in experiment [1] (setting [5]) amounted to 23%. Moreover, the IC50 amounted to 15 nM against TYK2 (Table B1), 85 nM in experiment [2] (Table B1), 141 nM in experiment [3] (Table B1) and 14 nM in experiment [4] (Table B1).

As to `O=S(=O)(Nc1ccc2cc1CCc1cccc(c1)Nc1ncc(Cl)c(n1)N2)c1ccc(C(F)(F)F)cc1` [Example B162, N-[6-Chloro-2,4,8,22-tetraazatetracyclo[14.3.1.1(3,7).1(9,13)]docosa-1(20), 3(22),4,6,9(21),10,12,16,18-nonaen-12-yl]-4-(trifluoromethyl)benzenesulfonamide trifluoroacetate], the “ALK % of inhibition” value in experiment [1] (setting [5]) is 16%. Further, the half-maximal inhibitory concentration (IC50) came out at 4.3 nM against TYK2 (Table B1), 26 nM in experiment [2] (Table B1), 2.7 nM in experiment [3] (Table B1) and 1.7 nM in experiment [4] (Table B1).

In the case of `CC(C)(C)NC(=O)N1CCC(CC(=O)Nc2ccc3cc2CCc2cncc(c2)Nc2ncc(Cl)c(n2)N3)CC1` [Example A113, N-(tert-Butyl)-4-(2-{[6-chloro-2,4,8,18,22-pentaazatetracyclo[14.3.1.1(3,7).1(9,13)]docosa-1(20),3(22),4,6,9(21),10,12,16,18-nonaen-12-yl]amino}-2-oxoethyl)piperidine-1-carboxamide bis(trifluoroacetate)], the “ALK % of inhibition” value in experiment [1] (setting [6]) is recorded as 14%. Further, the IC50 on TYK2 was 61 nM; in experiment [2] (setting [7]), 238 nM; in experiment [3] (setting [8]), 54 nM; in experiment [4] (setting [9]), 17 nM.

As for `O=C(Nc1ccccc1)N1CCN(c2ccc(-c3cc4cc(c3)Nc3ncc(Cl)c(n3)Nc3cccc(c3)OCC4)cn2)CC1` [Example D42, 4-{5-[6-Chloro-14-oxa-2,4,8,23-tetraazatetracyclo[15.3.1.1(3,7).1(9,13)]tricosa-1(21),3(23),4,6,9(22),10,12,17,19-nonaen-19-yl]pyridin-2-yl}-N-phenylpiperazine-1-carboxamide bis(trifluoroacetate)], the IC50 in experiment [1] (Table D1, 90 μM ATP) turned out to be 730 nM; against TYK2 (Table D1), 4 nM; in experiment [2] (Table D1) it was 20 nM; in experiment [3] (Table D1) it was 2.1 nM; in experiment [4] (Table D1), 2.2 nM.

As for `Cc1oncc1S(=O)(=O)N1CCC(CN(C)Cc2ccc3cc2CCc2cncc(c2)Nc2ncc(Cl)c(n2)N3)CC1` [Example B342, 1-[6-Chloro-2,4,8,18,22-pentaazatetracyclo[14.3.1.1(3,7).1(9,13)]docosa-1(20),3(22),4,6,9(21),10,12,16,18-nonaen-12-yl]-N-methyl-N-({1-[(5-methylisoxazol-4-yl)sulfonyl]piperidin-4-yl}methyl)methanamine tris(trifluoroacetate)], the “ALK % of inhibition” value in experiment [1] (setting [10]) worked out at 37%. Moreover, the IC50 is 226 nM against TYK2 (Table B1), over 400 nM in experiment [2] (Table B1), 60 nM in experiment [3] (Table B1) and 7.7 nM in experiment [4] (Table B1).

Take `O=C(Nc1ccc2cc1CCc1cncc(c1)Nc1ncc(Cl)c(n1)N2)N1CCC(S(=O)(=O)c2ccccc2)C1` (stereo not shown) [Example B321, N-[6-Chloro-2,4,8,18,22-pentaazatetracyclo[14.3.1.1(3,7).1(9,13)]docosa-1(20),3(22),4,6,9(21),10,12,16,18-nonaen-12-yl]-3-(phenylsulfonyl)pyrrolidine-1-carboxamide bis(trifluoroacetate)]: in experiment [1] (setting [10]), the “ALK % of inhibition” value was determined as 36%. The IC50 was over 400 nM against TYK2 (Table B1), over 400 nM in experiment [2] (Table B1), 371 nM in experiment [3] (Table B1) and 75 nM in experiment [4] (Table B1).

Regarding `O=C(Nc1ccccc1)c1cc2cc(c1)OCCSc1cccc(c1)Nc1nc(ncc1Cl)N2` [Example D50, 6-Chloro-N-phenyl-17-oxa-14-thia-2,4,8,24-tetraazatetracyclo[16.3.1.1(3,7).1(9,13)]tetracosa-1(22),3(24),4,6,9(23),10,12,18,20-nonaene-20-carboxamide trifluoroacetate], the IC50 in experiment [1] (Table D1, 90 μM ATP) stood at 1500 nM; against TYK2 (Table D1), 16 nM; in experiment [2] (Table D1), 55 nM; in experiment [3] (Table D1), 4.1 nM; in experiment [4] (Table D1), 7.3 nM.

With `N#Cc1c(N2CCC(CC(=O)Nc3ccc4cc3CCc3cncc(c3)Nc3ncc(Cl)c(n3)N4)CC2)cccc1C(F)(F)F` [Example A235, N-[6-Chloro-2,4,8,18,22-pentaazatetracyclo[14.3.1.1(3,7).1(9,13)]docosa-1(20),3(22),4,6,9(21),10,12,16,18-nonaen-12-yl]-2-{1-[2-cyano-3-(trifluoromethyl)phenyl]piperidin-4-yl}acetamide tris(trifluoroacetate)], the “ALK % of inhibition” value in experiment [1] (setting [6]) came to 4.6%. Further, the IC50 is over 400 nM against TYK2, over 400 nM in experiment [2] (setting [7]), 326 nM in experiment [3] (setting [8]) and 12 nM in experiment [4] (setting [9]).

Regarding `Clc1cnc2nc1Nc1cccc(c1)CCc1cccc(c1)N2` [Example A2, 6-Chloro-2,4,8,22-tetraazatetracyclo[14.3.1.1(3,7).1(9,13)]docosa-1(20),3(22),4,6,9(21),10,12,16,18-nonaene trifluoroacetate], the IC50 in experiment [1] (90 μM ATP) came out at 657 nM; against TYK2 it was 35 nM; in experiment [2] (setting [7]), 26 nM; in experiment [3] (setting [8]), 9.3 nM; in experiment [4] (setting [9]), 12 nM.

In the case of `O=C(Nc1ccc2cc1CCc1cccc(c1)Nc1ncc(Cl)c(n1)N2)[C@@H]1CCN(C(=O)NC2CCCC2)C1` [Example A63, (3R)—N(3)-[6-Chloro-2,4,8,22-tetraazatetracyclo[14.3.1.1(3,7).1(9,13)]docosa-1(20),3(22),4,6,9(21),10,12,16,18-nonaen-12-yl]-N(1)-cyclopentylpyrrolidine-1,3-dicarboxamide trifluoroacetate], in experiment [1] (setting [6]), the “ALK % of inhibition” value amounted to 29%. The IC50 is 13 nM on TYK2, 2.6 nM in experiment [2] (setting [7]), 2.5 nM in experiment [3] (setting [8]) and 9 nM in experiment [4] (setting [9]).

As for `CSc1ccccc1NC(=O)N1CCC(C(=O)Nc2ccc3cc2CCc2cccc(c2)Nc2ncc(Cl)c(n2)N3)CC1` [Example A39, N(4)-[6-Chloro-2,4,8,22-tetraazatetracyclo[14.3.1.1(3,7).1(9,13)]docosa-1(20),3(22),4,6,9(21),10,12,16,18-nonaen-12-yl]-N(1)-[2-(methylthio)phenyl]piperidine-1,4-dicarboxamide trifluoroacetate], in experiment [1] (setting [6]), the “ALK % of inhibition” value was determined as 39%. The half-inhibitory concentration (IC50) at TYK2 is 77 nM; in experiment [2] (setting [7]) it was 66 nM; in experiment [3] (setting [8]) it was 36 nM; in experiment [4] (setting [9]), 19 nM.

On to `O=C(Nc1ccc2cc1CCc1cccc(c1)Nc1ncc(Cl)c(n1)N2)N[C@@H]1CCN(C(=O)c2ccccc2)C1` [Example B176, N-[(3R)-1-Benzoylpyrrolidin-3-yl]-N′-[6-chloro-2,4,8,22-tetraazatetracyclo[14.3.1.1(3,7).1(9,13)]docosa-1(20),3(22),4,6,9(21),10,12,16,18-nonaen-12-yl]urea trifluoroacetate], for which, in experiment [1] (setting [5]), the “ALK % of inhibition” value was determined as 19%. Moreover, the 50% inhibitory concentration (IC50) at TYK2 (Table B1) came out at 25 nM; in experiment [2] (Table B1) it was 60 nM; in experiment [3] (Table B1), 7.8 nM; in experiment [4] (Table B1), 5.7 nM.

`Nc1cc2cc(c1)Nc1nc(ncc1Cl)Nc1cccc(c1)CC2` [Example B21, 6-Chloro-2,4,8,22-tetraazatetracyclo[14.3.1.1(3,7).1(9,13)]docosa-1(20),3(22),4,6,9(21),10,12,16,18-nonaen-11-amine bis(trifluoroacetate)]: the half-inhibitory concentration (IC50) was found to be 1500 nM in experiment [1] (Table B1, cells without percent sign); 32 nM against TYK2 (Table B1); 21 nM in experiment [2] (Table B1); 6.3 nM in experiment [3] (Table B1); 18 nM in experiment [4] (Table B1).

Consider `O=C(CC1CCN(C(=O)Nc2cccnc2)CC1)Nc1ccc2cc1CCc1cncc(c1)Nc1ncc(Cl)c(n1)N2` [Example A144, 4-(2-{[6-Chloro-2,4,8,18,22-pentaazatetracyclo[14.3.1.1(3,7).1(9,13)]docosa-1(20),3(22),4,6,9(21),10,12,16,18-nonaen-12-yl]amino}-2-oxoethyl)-N-pyridin-3-ylpiperidine-1-carboxamide bis(trifluoroacetate)], for which the “ALK % of inhibition” value in experiment [1] (setting [6]) was 35%. Also, the IC50 against TYK2 is 11 nM; in experiment [2] (setting [7]), over 100 nM; in experiment [3] (setting [8]), 6.4 nM; in experiment [4] (setting [9]) it was 1.2 nM.
